Experimental data taken from patent US5530126A, “Process for the preparation of substituted 6-(pyrazol-3yl)-1,4-benzoxazin-3-ones” (Monsanto Company, priority 1994, dated 1996).

Assays:
Type in all cases: in vivo
Cocklebur [1] = assay: Post-emergence herbicide test; conditions: Xanthium strumarium, read-out: % plant inhibition (Cobu); for inhibition at 1120 g/ha: 1.12 kg/ha; for inhibition at 11210 g/ha: 11.21 kg/ha
Outline: (§1)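 Percent growth inhibition against untreated plants, assessed roughly 11 days (range 10–14) after treatment and in some cases at about 25 days. Foliar application was to two- to three-week-old greenhouse plants at 1870 L/Ha spray volume.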

Velvetleaf [2] = assay: Post-emergence herbicide test; conditions: Abutilon theophrasti, read-out: % plant inhibition (Vele); for inhibition at 1120 g/ha: 1.12 kg/ha; for inhibition at 11210 g/ha: 11.21 kg/ha
Outline: as §1

Morningglory [3] = assay: Post-emergence herbicide test; conditions: Ipomoea, read-out: % plant inhibition (Mogl); for inhibition at 1120 g/ha: 1.12 kg/ha; for inhibition at 11210 g/ha: 11.21 kg/ha
Outline: as §1

Barnyardgrass [4] = assay: Post-emergence herbicide test; conditions: Echinochloa crus-galli, read-out: % plant inhibition (Bygr); for inhibition at 1120 g/ha: 1.12 kg/ha; for inhibition at 11210 g/ha: 11.21 kg/ha
Outline: as §1

Downy Brome [5] = assay: Post-emergence herbicide test; conditions: Bromus tectorum, read-out: % plant inhibition (Dobr); for inhibition at 1120 g/ha: 1.12 kg/ha; for inhibition at 11210 g/ha: 11.21 kg/ha
Outline: as §1

Seedling johnsongrass [6] = assay: Post-emergence herbicide test; conditions: Sorghum halepense, read-out: % plant inhibition (Sejg); for inhibition at 1120 g/ha: 1.12 kg/ha; for inhibition at 11210 g/ha: 11.21 kg/ha
Outline: as §1

Wild buckwheat [7] = assay: Post-emergence herbicide test; conditions: Fallopia convolvulus, read-out: % plant inhibition (Wibw); for inhibition at 1120 g/ha: 1.12 kg/ha; for inhibition at 11210 g/ha: 11.21 kg/ha
Outline: as §1

Yellow nutsedge [8] = assay: Post-emergence herbicide test; conditions: Cyperus, read-out: % plant inhibition (Yens); for inhibition at 1120 g/ha: 1.12 kg/ha; for inhibition at 11210 g/ha: 11.21 kg/ha
Outline: as §1

Annual bluegrass [9] = assay: Post-emergence herbicide test; conditions: read-out: % plant inhibition (Anbg); for inhibition at 1120 g/ha: 1.12 kg/ha; for inhibition at 11210 g/ha: 11.21 kg/ha
Outline: as §1

Indian Mustard [10] = assay: Post-emergence herbicide test; conditions: Brassica juncea, read-out: % plant inhibition (Inmu); for inhibition at 1120 g/ha: 1.12 kg/ha; for inhibition at 11210 g/ha: 11.21 kg/ha
Outline: as §1

Cocklebur [11] = assay: Pre-emergence herbicide test; conditions: Xanthium strumarium, read-out: % plant inhibition (Cobu); for inhibition at 1120 g/ha: 1.12 kg/ha; for inhibition at 11210 g/ha: 11.21 kg/ha
Outline: (§2)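 Percent growth inhibition rated roughly 11 days (range 10–14) after treatment, with pans held on a greenhouse bench and watered from below. Compound in acetone or water was sprayed onto the seed bed before covering with a layer of untreated topsoil.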

Velvetleaf [12] = assay: Pre-emergence herbicide test; conditions: Abutilon theophrasti, read-out: % plant inhibition (Vele); for inhibition at 1120 g/ha: 1.12 kg/ha; for inhibition at 11210 g/ha: 11.21 kg/ha
Outline: as §2

Morningglory [13] = assay: Pre-emergence herbicide test; conditions: Ipomoea, read-out: % plant inhibition (Mogl); for inhibition at 1120 g/ha: 1.12 kg/ha; for inhibition at 11210 g/ha: 11.21 kg/ha
Outline: as §2

Barnyardgrass [14] = assay: Pre-emergence herbicide test; conditions: Echinochloa crus-galli, read-out: % plant inhibition (Bygr); for inhibition at 1120 g/ha: 1.12 kg/ha; for inhibition at 11210 g/ha: 11.21 kg/ha
Outline: as §2

Downy Brome [15] = assay: Pre-emergence herbicide test; conditions: Bromus tectorum, read-out: % plant inhibition (Dobr); for inhibition at 1120 g/ha: 1.12 kg/ha; for inhibition at 11210 g/ha: 11.21 kg/ha
Outline: as §2

Seedling johnsongrass [16] = assay: Pre-emergence herbicide test; conditions: Sorghum halepense, read-out: % plant inhibition (Sejg); for inhibition at 1120 g/ha: 1.12 kg/ha; for inhibition at 11210 g/ha: 11.21 kg/ha
Outline: as §2

Wild buckwheat [17] = assay: Pre-emergence herbicide test; conditions: Fallopia convolvulus, read-out: % plant inhibition (Wibw); for inhibition at 1120 g/ha: 1.12 kg/ha; for inhibition at 11210 g/ha: 11.21 kg/ha
Outline: as §2

Yellow nutsedge [18] = assay: Pre-emergence herbicide test; conditions: Cyperus, read-out: % plant inhibition (Yens); for inhibition at 1120 g/ha: 1.12 kg/ha; for inhibition at 11210 g/ha: 11.21 kg/ha
Outline: as §2

Annual bluegrass [19] = assay: Pre-emergence herbicide test; conditions: read-out: % plant inhibition (Anbg); for inhibition at 1120 g/ha: 1.12 kg/ha; for inhibition at 11210 g/ha: 11.21 kg/ha
Outline: as §2

Indian Mustard [20] = assay: Pre-emergence herbicide test; conditions: Brassica juncea, read-out: % plant inhibition (Inmu); for inhibition at 1120 g/ha: 1.12 kg/ha; for inhibition at 11210 g/ha: 11.21 kg/ha
Outline: as §2

SMILES	inhibition at 1120 g/ha (Cocklebur [1]) [%]	inhibition at 1120 g/ha (Velvetleaf [2]) [%]	inhibition at 1120 g/ha (Morningglory [3]) [%]	inhibition at 1120 g/ha (Barnyardgrass [4]) [%]	inhibition at 1120 g/ha (Downy Brome [5]) [%]	inhibition at 1120 g/ha (Seedling johnsongrass [6]) [%]	inhibition at 1120 g/ha (Wild buckwheat [7]) [%]	inhibition at 1120 g/ha (Yellow nutsedge [8]) [%]	inhibition at 1120 g/ha (Annual bluegrass [9]) [%]	inhibition at 1120 g/ha (Indian Mustard [10]) [%]	inhibition at 1120 g/ha (Cocklebur [11]) [%]	inhibition at 1120 g/ha (Velvetleaf [12]) [%]	inhibition at 1120 g/ha (Morningglory [13]) [%]	inhibition at 1120 g/ha (Barnyardgrass [14]) [%]	inhibition at 1120 g/ha (Downy Brome [15]) [%]	inhibition at 1120 g/ha (Seedling johnsongrass [16]) [%]	inhibition at 1120 g/ha (Wild buckwheat [17]) [%]	inhibition at 1120 g/ha (Yellow nutsedge [18]) [%]	inhibition at 1120 g/ha (Annual bluegrass [19]) [%]	inhibition at 1120 g/ha (Indian Mustard [20]) [%]	other results
CCOCc1cc(-c2nn(C)c(C(F)(F)F)c2Cl)c(F)cc1Cl [Compound 118]	80	90	60	30	20	30	100	30	30	30	80	90	100	90	100	90	100	0	100	100	–
Cn1nc(-c2ccc(Cl)cc2Cl)c(Cl)c1C(F)(F)F [Compound 85]	–	–	–	–	–	–	–	–	–	–	–	–	–	–	–	–	–	–	–	–	inhibition at 11210 g/ha (Cocklebur [1]): 40%; inhibition at 11210 g/ha (Velvetleaf [2]): 100%; inhibition at 11210 g/ha (Morningglory [3]): 100%; inhibition at 11210 g/ha (Barnyardgrass [4]): 70%; inhibition at 11210 g/ha (Downy Brome [5]): 50%; inhibition at 11210 g/ha (Seedling johnsongrass [6]): 90%; inhibition at 11210 g/ha (Wild buckwheat [7]): 100%; inhibition at 11210 g/ha (Yellow nutsedge [8]): 20%; inhibition at 11210 g/ha (Annual bluegrass [9]): 60%; inhibition at 11210 g/ha (Indian Mustard [10]): 20%; inhibition at 11210 g/ha (Cocklebur [11]): 40%; inhibition at 11210 g/ha (Velvetleaf [12]): 100%; inhibition at 11210 g/ha (Morningglory [13]): 100%; inhibition at 11210 g/ha (Barnyardgrass [14]): 100%; inhibition at 11210 g/ha (Downy Brome [15]): 100%; inhibition at 11210 g/ha (Seedling johnsongrass [16]): 100%; inhibition at 11210 g/ha (Wild buckwheat [17]): 100%; inhibition at 11210 g/ha (Yellow nutsedge [18]): 0%; inhibition at 11210 g/ha (Annual bluegrass [19]): 100%; inhibition at 11210 g/ha (Indian Mustard [20]): 100%
CC(C)COC(=O)c1cc(-c2nn(C)c(C(F)(F)F)c2Cl)c(F)cc1Cl [Compound 139]	90	100	100	100	100	100	100	10	90	100	70	100	70	30	80	40	90	20	20	90	–
Cn1nc(-c2cc(/C=C/C(=O)O)c(Cl)cc2F)c(Cl)c1C(F)(F)F [Compound 351]	100	100	100	70	40	60	100	30	30	100	80	100	80	0	0	0	100	0	0	100	–
Cn1nc(-c2cc(S(=O)(=O)Cl)c(Cl)cc2Cl)c(Cl)c1C(F)(F)F [Compound 89]	–	–	–	–	–	–	–	–	–	–	–	–	–	–	–	–	–	–	–	–	inhibition at 11210 g/ha (Cocklebur [1]): 100%; inhibition at 11210 g/ha (Velvetleaf [2]): 100%; inhibition at 11210 g/ha (Morningglory [3]): 100%; inhibition at 11210 g/ha (Barnyardgrass [4]): 20%; inhibition at 11210 g/ha (Downy Brome [5]): 10%; inhibition at 11210 g/ha (Seedling johnsongrass [6]): 70%; inhibition at 11210 g/ha (Wild buckwheat [7]): 50%; inhibition at 11210 g/ha (Yellow nutsedge [8]): 0%; inhibition at 11210 g/ha (Annual bluegrass [9]): 10%; inhibition at 11210 g/ha (Indian Mustard [10]): 80%; inhibition at 11210 g/ha (Cocklebur [11]): 0%; inhibition at 11210 g/ha (Velvetleaf [12]): 90%; inhibition at 11210 g/ha (Morningglory [13]): 20%; inhibition at 11210 g/ha (Barnyardgrass [14]): 0%; inhibition at 11210 g/ha (Downy Brome [15]): 0%; inhibition at 11210 g/ha (Seedling johnsongrass [16]): 0%; inhibition at 11210 g/ha (Wild buckwheat [17]): 30%; inhibition at 11210 g/ha (Yellow nutsedge [18]): 10%; inhibition at 11210 g/ha (Annual bluegrass [19]): 0%; inhibition at 11210 g/ha (Indian Mustard [20]): 70%
